Experimental findings from article PMC9358547 (2022) are described below.

In experiment [1] the test system is HTPu-var-1-G4 (human telomere variant-1, 23-mer) (DNA, G4) TAGGGTTAGGGTTAGGGTTAGGG
The experiment can be described thus: electrophoretic mobility shift assay with complementary strand HTPy-var-1. To be noted: 100 mM K+; 30 mM sodium cacodylate pH 7.0, 1 mM EDTA; DNA:peptide 1:120, 1:160; excess HTPy-var-1 added afterwards. On the technique in general: A gel shift assay detects complexes by their altered migration in electrophoresis.

Experiment [2] has the same test system. Nature of the experiment: circular dichroism titration. To be noted: 30 mM sodium cacodylate pH 7.0, 0.5 mM EDTA, 6 μM DNA, apparent constant. On the technique in general: CD spectra are sensitive to the conformation of chiral molecules.
Experiment [3] has the same test system. Nature of the experiment: tryptophan fluorescence quenching titration. The settings on record: 30 mM buffer pH 7.0, 0.5 mM EDTA, 25 °C, 4 μM peptide titrated with DNA.
The test system is the same in experiment [4]. The experiment can be described thus: UV melting at 295 nm. To be noted: 30 mM sodium cacodylate pH 7.0, 0.5 mM EDTA, 4 μM DNA.

For orientation: ΔTm means the shift of the melting midpoint relative to a reference. Take H-VAQKW-OH: the binding entry in experiment [1] is given as “yes”. Moreover, the Kb came out at 290 ± 10 µM in experiment [2] (100 mM K+), 260 ± 30 µM in experiment [2] (100 mM Na+), 0.71 ± 0.42 µM in experiment [3] (100 mM K+) and 0.46 ± 0.11 µM in experiment [3] (100 mM Na+). Besides, the ΔTm in experiment [4] (100 mM K+, DNA:peptide 1:40, non-monotonic (66.1 at 1:80)) was -1.0 °C; in experiment [4] (100 mM Na+, DNA:peptide 1:230), -0.9 °C.
